# Experimental data: ChEMBL document CHEMBL1201862, “PubChem BioAssay data set” (2004)
#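 Values below derive from 48-hour exposures of cells grown in 96-well plates, with endpoints linearly interpolated between the two concentrations bracketing the appropriate inhibition level. GI50: concentration for 50% inhibition of growth.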 Activity calls are given as the source filed them. No stated cut-off is given here; in the data, active = GI50 up to about 1.1 µM and inactive = higher.
# Assays:
# Test in all cases: DTP human tumour cell line panel, 48 h
# 786-0 = tested on: 786-0
# A549 = tested on: A549
# ACHN = tested on: ACHN
# BT-549 = tested on: BT-549
# CAKI-1 = tested on: CAKI-1
# CCRF-CEM = tested on: CCRF-CEM
# COLO 205 = tested on: COLO 205
# DU-145 = tested on: DU-145
# EKVX = tested on: EKVX
# HCC 2998 = tested on: HCC 2998
# HCT-116 = tested on: HCT-116
# HCT-15 = tested on: HCT-15
# K562 = tested on: K562
# M14 = tested on: M14
# MDA-MB-435 = tested on: MDA-MB-435
# OVCAR-3 = tested on: OVCAR-3
# OVCAR-4 = tested on: OVCAR-4
# PC-3 = tested on: PC-3
# RPMI-8226 = tested on: RPMI-8226
# SF-295 = tested on: SF-295
# SK-MEL-28 = tested on: SK-MEL-28
# SK-MEL-2 = tested on: SK-MEL-2
# SK-OV-3 = tested on: SK-OV-3
# SW-620 = tested on: SW-620
# UACC-257 = tested on: UACC-257
# UACC-62 = tested on: UACC-62
# UO-31 = tested on: UO-31
# A498 = tested on: A498
# HL-60 = tested on: HL-60
# HOP-62 = tested on: HOP-62
# HOP-92 = tested on: HOP-92
# HT-29 = tested on: HT-29
# Hs-578T = tested on: Hs-578T
# IGROV-1 = tested on: IGROV-1
# KM12 = tested on: KM12
# LOX IMVI = tested on: LOX IMVI
# MCF7 = tested on: MCF7
# MDA-MB-231 = tested on: MDA-MB-231
# MDA-N = tested on: MDA-N
# MOLT-4 = tested on: MOLT-4
# Malme-3M = tested on: Malme-3M
# NCI-H226 = tested on: NCI-H226
# NCI-H23 = tested on: NCI-H23
# NCI-H460 = tested on: NCI-H460
# NCI-H522 = tested on: NCI-H522
# NCI/ADR-RES = tested on: NCI/ADR-RES
# OVCAR-5 = tested on: OVCAR-5
# OVCAR-8 = tested on: OVCAR-8
# RXF 393 = tested on: RXF 393
# SF-268 = tested on: SF-268
# SF-539 = tested on: SF-539
# SK-MEL-5 = tested on: SK-MEL-5
# SN12C = tested on: SN12C
# SNB-19 = tested on: SNB-19
# SNB-75 = tested on: SNB-75
# SR = tested on: SR
# T47D = tested on: T47D
# TK-10 = tested on: TK-10
# U-251 = tested on: U-251
compound,measurement,setting,value
COc1cc2c[n+](C)c3c4cc(OC)c(OC)cc4ccc3c2cc1OC,GI50,786-0,> 100 µM (inactive)
same,GI50,A549,> 100 µM (inactive)
same,GI50,ACHN,> 100 µM (inactive)
same,GI50,BT-549,32.1 µM (inactive)
same,GI50,CAKI-1,> 100 µM (inactive)
same,GI50,CCRF-CEM,35.3 µM (inactive)
same,GI50,COLO 205,15.8 µM (inactive)
same,GI50,DU-145,25.4 µM (inactive)
same,GI50,EKVX,> 100 µM (inactive)
same,GI50,HCC 2998,> 100 µM (inactive)
same,GI50,HCT-116,> 100 µM (inactive)
same,GI50,HCT-15,> 100 µM
same,GI50,K562,26.1 µM (inactive)
same,GI50,M14,> 100 µM (inactive)
same,GI50,MDA-MB-435,> 100 µM (inactive)
same,GI50,OVCAR-3,29.1 µM (inactive)
same,GI50,OVCAR-4,55.3 µM (inactive)
same,GI50,PC-3,72.9 µM (inactive)
same,GI50,RPMI-8226,48 µM (inactive)
same,GI50,SF-295,> 100 µM (inactive)
same,GI50,SK-MEL-28,> 100 µM (inactive)
same,GI50,SK-MEL-2,> 100 µM (inactive)
same,GI50,SK-OV-3,> 100 µM (inactive)
same,GI50,SW-620,91.2 µM (inactive)
same,GI50,UACC-257,> 100 µM (inactive)
same,GI50,UACC-62,> 100 µM (inactive)
same,GI50,UO-31,> 100 µM (inactive)
N=C1N(c2ccccc2)C(=S)/C(=N/c2ccccc2)N1c1ccccc1,GI50,786-0,9.68 µM (inactive)
same,GI50,A498,17.7 µM (inactive)
same,GI50,A549,19.7 µM (inactive)
same,GI50,ACHN,8.28 µM (inactive)
same,GI50,CAKI-1,14.4 µM (inactive)
same,GI50,CCRF-CEM,4.27 µM (inactive)
same,GI50,COLO 205,3.3 µM (inactive)
same,GI50,DU-145,17.4 µM (inactive)
same,GI50,EKVX,21.1 µM (inactive)
same,GI50,HCC 2998,15.3 µM (inactive)
same,GI50,HCT-116,2.53 µM (inactive)
same,GI50,HCT-15,7.19 µM
same,GI50,HL-60,3.12 µM (inactive)
same,GI50,HOP-62,19.3 µM (inactive)
same,GI50,HOP-92,9.48 µM (inactive)
same,GI50,HT-29,4.37 µM (inactive)
same,GI50,Hs-578T,10 µM (inactive)
same,GI50,IGROV-1,12 µM (inactive)
same,GI50,K562,2.45 µM (inactive)
same,GI50,KM12,14 µM (inactive)
same,GI50,LOX IMVI,2.01 µM (inactive)
same,GI50,M14,9.46 µM (inactive)
same,GI50,MCF7,1.84 µM (inactive)
same,GI50,MDA-MB-231,8.73 µM (inactive)
same,GI50,MDA-MB-435,1.92 µM (inactive)
same,GI50,MDA-N,2.45 µM (inactive)
same,GI50,MOLT-4,1.29 µM (inactive)
same,GI50,Malme-3M,13.4 µM (inactive)
same,GI50,NCI-H226,20.2 µM (inactive)
same,GI50,NCI-H23,6.03 µM (inactive)
same,GI50,NCI-H460,11.5 µM (inactive)
same,GI50,NCI-H522,2.81 µM (inactive)
same,GI50,NCI/ADR-RES,18.4 µM (inactive)
same,GI50,OVCAR-3,2.28 µM (inactive)
same,GI50,OVCAR-4,12.7 µM (inactive)
same,GI50,OVCAR-5,15.6 µM (inactive)
same,GI50,OVCAR-8,4.95 µM (inactive)
same,GI50,PC-3,10.2 µM (inactive)
same,GI50,RPMI-8226,2.31 µM (inactive)
same,GI50,RXF 393,11.9 µM (inactive)
same,GI50,SF-268,14.9 µM (inactive)
same,GI50,SF-295,16.6 µM (inactive)
same,GI50,SF-539,12.4 µM (inactive)
same,GI50,SK-MEL-28,16.8 µM (inactive)
same,GI50,SK-MEL-2,5.89 µM (inactive)
same,GI50,SK-MEL-5,2.38 µM (inactive)
same,GI50,SK-OV-3,18.9 µM (inactive)
same,GI50,SN12C,13.3 µM (inactive)
same,GI50,SNB-19,16.6 µM (inactive)
same,GI50,SNB-75,15.9 µM (inactive)
same,GI50,SR,2.58 µM (inactive)
same,GI50,SW-620,4.27 µM (inactive)
same,GI50,T47D,2.57 µM (inactive)
same,GI50,TK-10,15 µM (inactive)
same,GI50,U-251,14.2 µM (inactive)
same,GI50,UACC-257,2.55 µM (inactive)
same,GI50,UACC-62,5.77 µM (inactive)
same,GI50,UO-31,6.28 µM (inactive)
COc1cc2c(cc1OC)CC1c3cc(OC)c(OC)cc3CCN1CC2 (stereo unspecified),GI50,786-0,> 100 µM (inactive)
same,GI50,A498,> 100 µM (inactive)
same,GI50,A549,> 100 µM (inactive)
same,GI50,ACHN,1.64 µM (inactive)
same,GI50,BT-549,> 100 µM (inactive)
same,GI50,CAKI-1,> 100 µM (inactive)
same,GI50,CCRF-CEM,> 100 µM (inactive)
same,GI50,COLO 205,> 100 µM (inactive)
same,GI50,DU-145,> 100 µM (inactive)
same,GI50,EKVX,> 100 µM (inactive)
same,GI50,HCC 2998,> 100 µM (inactive)
same,GI50,HCT-116,26.3 µM (inactive)
same,GI50,HCT-15,> 100 µM
same,GI50,HL-60,10.6 µM (inactive)
same,GI50,HOP-62,> 100 µM (inactive)
same,GI50,HOP-92,69.3 µM (inactive)
same,GI50,HT-29,27.5 µM (inactive)
same,GI50,Hs-578T,22.9 µM (inactive)
same,GI50,IGROV-1,52.8 µM (inactive)
same,GI50,K562,89.7 µM (inactive)
same,GI50,KM12,> 100 µM (inactive)
same,GI50,M14,> 100 µM (inactive)
same,GI50,MCF7,> 100 µM (inactive)
same,GI50,MDA-MB-231,> 100 µM (inactive)
same,GI50,MDA-MB-435,40.3 µM (inactive)
same,GI50,MOLT-4,> 100 µM (inactive)
same,GI50,NCI-H226,19.6 µM (inactive)
same,GI50,NCI-H23,0.101 µM (active)
same,GI50,NCI-H460,17.5 µM (inactive)
same,GI50,NCI-H522,> 100 µM (inactive)
same,GI50,NCI/ADR-RES,63.2 µM (inactive)
same,GI50,OVCAR-3,> 100 µM (inactive)
same,GI50,OVCAR-4,> 100 µM (inactive)
same,GI50,OVCAR-5,> 100 µM (inactive)
same,GI50,OVCAR-8,95.5 µM (inactive)
same,GI50,PC-3,> 100 µM (inactive)
same,GI50,RPMI-8226,41.8 µM (inactive)
same,GI50,RXF 393,83.6 µM (inactive)
same,GI50,SF-268,42.1 µM (inactive)
same,GI50,SF-295,95.1 µM (inactive)
same,GI50,SF-539,58.7 µM (inactive)
same,GI50,SK-MEL-28,> 100 µM (inactive)
same,GI50,SK-MEL-2,> 100 µM (inactive)
same,GI50,SK-MEL-5,30.8 µM (inactive)
same,GI50,SK-OV-3,> 100 µM (inactive)
same,GI50,SN12C,> 100 µM (inactive)
same,GI50,SNB-19,0.49 µM (active)
same,GI50,SNB-75,> 100 µM (inactive)
same,GI50,SR,> 100 µM (inactive)
same,GI50,SW-620,84.1 µM (inactive)
same,GI50,T47D,> 100 µM (inactive)
same,GI50,TK-10,> 100 µM (inactive)
same,GI50,U-251,52.8 µM (inactive)
same,GI50,UACC-257,> 100 µM (inactive)
same,GI50,UACC-62,67 µM (inactive)
same,GI50,UO-31,0.199 µM (active)
